Data taken from patent publication US20020045780A1, “Biologically active spermidine analogues, pharmaceutical compositions and methods of treatment” (priority 1997, published 2002).
Where a name gives a salt, the structure may show the parent alone. Read-outs that look alike come from different tables or passages of the source.

How the values were obtained:
L1210 cells [1] = conditions: 48 hours, cited from earlier work; for Put, corresponding tetraamine (in parentheses) / Spd, corresponding tetraamine (in parentheses) / Spm, corresponding tetraamine (in parentheses): % of untreated control; for Analogue, corresponding tetraamine (in parentheses): intracellular amount
[2] = tested on: ornithine decarboxylase (ODC); conditions: L1210, 1 μM at 4 hours; cited from earlier work
L1210 cells [3] = conditions: cited from earlier work
[4] = biological target: polyamine transport apparatus; conditions: inhibition of spermidine transport, L1210; read-out: Ki, corresponding tetraamine (in parentheses); cited from earlier work
[5] = tested on: spermidine/spermine acetyltransferase (SSAT); conditions: L1210, 2 μM at 48 hours (tetraamine analogues); cited from earlier work
L1210 cells [6] = test: Metabolic transformation of polyamine analogues by L1210 cells; assay type: in vitro ADME, murine; conditions: for Parent drug as % of total drug in the cell / Parent drug in L1210 cells: 48 hours
Method: The cells were washed twice with cold RPMI-1640, and the pellet was treated with 0.6 N HClO4 (1 ml/10^7 cells). Polyamine contents of the perchloric acid extracts were quantitated by HPLC of the DANSYL derivatives [Bergeron et al, J. Med. Chem., Vol. 37, supra].

[7] = tested on: S-adenosylmethionine decarboxylase (AdoMetDC); conditions: L1210, 1 μM at 6 hours; cited from earlier work
[8] = Acute toxicity in mice (single i.p. dose); assay type: in vivo; conditions: female, CD-1, mouse, in vivo, ip, mice, single dose i.p., scored two hours after dose, read-out: Acute LD50
Method: In the current study, the acute toxicity of six analogues and the chronic toxicity of two triamines were measured (Table 7). The value of all polyamine LD50s are shown in both mg/kg and mmol/kg for comparison. […] The animals were scored two hours after administration of the drug. It is clear that the acute LD50s for triamine analogues are approximately twice the acute LD50s for the corresponding tetraamine analogues.
(§1) Acute and chronic toxicities were assessed in 10-12 week old CD-1 female mice from Harlan Sprague-Dawley. For acute toxicities, the polyamine analogues were administered in a single i.p. injection to groups of five or six animals at each dose. The animals were scored two hours after administration of the dose. All survivors were further observed for 10 days to assess late onset of toxicity from the single acute dose. In the chronic toxicity regimen, mice were administered polyamine analogue in three i.p. doses per day (t.i.d.) for six days, for a total of eighteen doses per animal. Appetite, weight and overall appearance were monitored daily. […] At least three test groups of 5-6 animals each, representing three different dose levels, were evaluated for each analogue tested. These dose levels were chosen so that at least two groups presented with lethalities, one with a high fraction of lethalities (>0.50, but <1.00).

mice [9] = conditions: mice, i.p. t.i.d. × 6 days, cited from earlier work
mice [10] = assay type: in vivo
Method: In the chronic toxicity regimen, mice were administered the polyamine analogue in three doses per day (t.i.d.) for six days for a total of eighteen injections per animal and observed for 10 days after the final dose for lethalities. […] A similar difference is also observed in the chronic toxicity of DE(3,4).
as §1

[11] = tested on: S-adenosylmethionine decarboxylase (AdoMetDC); test: AdoMetDC activity in treated L1210 cells; assay type: cell-based, murine; conditions: L1210, 1 μM at 6 hours
Summary of the method: (§2)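 L1210 cells treated with triamines; ODC activity measured at 4 h and AdoMetDC at 6 h as ^14CO2 released from [^14C]-carboxyl-labeled L-ornithine (ODC) or S-adenosyl-L-methionine (AdoMetDC). Untreated cells served as controls and DEHSPM-treated cells as positive controls.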

[12] = tested on: polyamine transport apparatus; test: Competitive uptake determination: inhibition of [3H]spermidine transport into L1210 cells; assay type: cell-based, murine; conditions: analogue inhibition of spermidine transport
Summary of the method: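 Analogues competed with [3H]spermidine for uptake into L1210 cells. Values are Ki, derived from Lineweaver–Burk analysis as competitive inhibition with respect to spermidine.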

L1210 cells [13] = test: L1210 growth inhibition, IC50 determination; assay type: cell-based, murine; conditions: Mus musculus
Method: Murine L1210 leukemia cells (ATCC CCL 219) were maintained in logarithmic growth in RPMI-1640 medium containing 10% fetal calf serum or a semi-synthetic equivalent, NuSerum, 2% HEPES-MOPS buffer and 1 mM aminoguanidine.

[14] = tested on: spermidine/spermine acetyltransferase (SSAT); test: SSAT activity in treated L1210 cells; assay type: cell-based, murine; conditions: L1210, 10 μM at 48 hours (triamine analogues)
Excerpt: Spermidine/spermine N^1-acetyltransferase activity was based on quantitation of [^14C]-N^1-acetylspermidine formed by acetylation of SPD with [^14C] acetyl coenzyme A according to the method of Libby et al [Biochem. Pharmacol., Vol. 38, supra]. Cells treated with DENSPM were positive controls.

L1210 cells [15] = test: Polyamine pool analysis in L1210 cells; assay type: cell-based, murine; conditions: for activity at 100 µM / activity at 500 µM: Mus musculus, L1210, 48 h, % of untreated control; for Analogue: intracellular amount, 48 hours
Summary of the method: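 Cells were exposed to each analogue for 48 h at two concentrations. Washed pellets were extracted with 0.6 N HClO4 (1 ml/10^7 cells), and polyamines were quantified by HPLC of dansyl derivatives.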

[16] = tested on: ornithine decarboxylase (ODC); test: ODC activity in treated L1210 cells; assay type: cell-based, murine; conditions: L1210, 1 μM at 4 hours
Summary of the method: as §2

[17] = L1210, 48 hour exposure, read-out: IC50 48 hour, corresponding tetraamine (in parentheses)
[18] = L1210, 96 hour exposure, read-out: IC50 96 hour, corresponding tetraamine (in parentheses)

| SMILES | Put, corresponding tetraamine (in parentheses) (L1210 cells [1]; 100 μM) | Spd, corresponding tetraamine (in parentheses) (L1210 cells [1]; 100 μM) | Spm, corresponding tetraamine (in parentheses) (L1210 cells [1]; 100 μM) | Put, corresponding tetraamine (in parentheses) (L1210 cells [1]; 500 μM) | Spd, corresponding tetraamine (in parentheses) (L1210 cells [1]; 500 μM) | Spm, corresponding tetraamine (in parentheses) (L1210 cells [1]; 500 μM) | Analogue, corresponding tetraamine (in parentheses) (L1210 cells [1]; 100 μM) | Analogue, corresponding tetraamine (in parentheses) (L1210 cells [1]; 500 μM) | ODC activity, corresponding tetraamine (in parentheses) [2] | IC50 (L1210 cells [3]; [17]) [µM] | IC50 (L1210 cells [3]; [18]) [µM] | Ki [4] [µM] | SSAT activity, corresponding tetraamine (in parentheses) [5] | AdoMetDC activity, corresponding tetraamine (in parentheses) [7] | LD50 at 2 h ([8]; hydrochloride salts) [mg/kg] | LD50 at 2 h [8] [µmol/kg] | Parent drug as % of total drug in the cell (L1210 cells [6]; 100 μM analogue) [%] | Parent drug in L1210 cells (L1210 cells [6]; 100 μM analogue) [pmols/10^6] | other results |
| --- | --- | --- | --- | --- | --- | --- | --- | --- | --- | --- | --- | --- | --- | --- | --- | --- | --- | --- | --- |
| CNCCCCNCCCCNCCCCNC [DMHSPM] | (0) % | (0) % | (30) % | (0) % | (0) % | (27) % | (1.49) nmol/10^6 cells | (1.03) nmol/10^6 cells | 4% of untreated control | > 100 | 0.32 | 0.97 | 140% of untreated control | 45% of untreated control | – | – | – | – | N-dealkylation (result in words) (L1210 cells [6]; L1210 cells, data not shown, concentration not given): no evidence of N-dealkylation |
| CCNCCCCCNCCCCNCCCCCNCC.Cl.Cl.Cl.Cl [DE(5,4,5), 3,9,14,20-Tetraazadocosane Tetrahydrochloride] | – | – | – | – | – | – | – | – | 19% of untreated control | 0.4 | 0.03 | 16 | 190% of untreated control | 54% of untreated control | 195 | 424 | – | – | Put, corresponding tetraamine (in parentheses) (L1210 cells [1]; 0.75 μM): (0) %; Spd, corresponding tetraamine (in parentheses) (L1210 cells [1]; 0.75 μM): (10) %; Spm, corresponding tetraamine (in parentheses) (L1210 cells [1]; 0.75 μM): (58) %; Analogue, corresponding tetraamine (in parentheses) (L1210 cells [1]; 0.75 μM): (1.48) nmol/10^6 cells; Chronic LD50 (tetraamines) (mice [9]; hydrochloride salts): 36 mg/kg-day; Chronic LD50 (tetraamines) (mice [9]): 0.078 mmol/kg/day |
| CCCNCCCNCCCNCCCNCCC [DPNSPM, N^1,N^11-Dipropylnorspermine Tetrahydrochloride] | (61) % | (35) % | (77) % | (0) % | (19) % | (56) % | (0.89) nmol/10^6 cells | (1.28) nmol/10^6 cells | 79% of untreated control | > 100 | 18 | 11 | 460% of untreated control | 70% of untreated control | – | – | 78.2 | 893 | – |
| CCNCCCCNCCCNCC [DESPD, N^1,N^8-Diethylspermidine Trihydrochloride] | – | – | – | – | – | – | – | – | – | – | – | – | – | – | > 650 | > 3220 | 96.3 | 4041 | Animals died on day 6 (mice [10]; female, CD-1, mouse, in vivo, 15 mg/kg, 3 days): 4/5; Animals died on day 7 (mice [10]; female, CD-1, mouse, in vivo, 15 mg/kg, 7 day): 5/5; Chronic LD50 (triamines) (mice [10]; mice, i.p. t.i.d. × 6 days, hydrochloride salts): 426 mg/kg-day; Chronic LD50 (triamines) (mice [10]; mouse, in vivo, ip): 1.37 mmol/kg/day; Chronic toxicity in mice relative to the related tetraamine (mice [10]; ratio of chronic LD50 values, Table 7): about five times less toxic than DE(3,4,3); AdoMetDC activity, percent of untreated control [11]: 68% of untreated control; Ki [12]: 19.3 µM; IC50 (L1210 cells [13]; L1210, 48 h, L1210, 48 hour exposure, read-out: IC50 48 hour): ~100 µM; IC50 (L1210 cells [13]; L1210, 96 h, L1210, 96 hour exposure, read-out: IC50 96 hour): 0.6 to 0.8 µM; SSAT activity, percent of untreated control [14]: 1380% of untreated control; activity at 100 µM (L1210 cells [15]; 100 μM, read-out: Put): 0%; activity at 100 µM (L1210 cells [15]; 100 μM, read-out: Spd): 5%; activity at 100 µM (L1210 cells [15]; 100 μM, read-out: Spm): 74%; activity at 500 µM (L1210 cells [15]; 500 μM, read-out: Put): 0%; activity at 500 µM (L1210 cells [15]; 500 μM, read-out: Spd): 0%; activity at 500 µM (L1210 cells [15]; 500 μM, read-out: Spm): 55%; Analogue (L1210 cells [15]; 100 μM): 4.61 nmol/10^6 cells; Analogue (L1210 cells [15]; 500 μM): 4.20 nmol/10^6 cells; ODC activity, percent of untreated control [16]: 30% of untreated control |
| CCCNCCCNCCCCNCCCNCCC [DPSPM] | – | – | – | – | – | – | – | – | 52% of untreated control | 3 | 0.2 | 2.3 | 500% of untreated control | 72% of untreated control | – | – | – | – | Put, corresponding tetraamine (in parentheses) (L1210 cells [1]; 15 μM): (0) %; Analogue, corresponding tetraamine (in parentheses) (L1210 cells [1]; 3 μM): (1.12) nmol/10^6 cells; Analogue, corresponding tetraamine (in parentheses) (L1210 cells [1]; 15 μM): (1.09) nmol/10^6 cells; Parent drug as % of total drug in the cell (L1210 cells [6]; 15 μM analogue): 79.0%; Parent drug in L1210 cells (L1210 cells [6]; 15 μM analogue): 1568 pmols/10^6 |
